Reference: patent US20230190781A1, “ADEMETIONINE AND CANNABIDIOL BASED SOLID PHARMACEUTICAL COMPOSITION AND METHOD FOR PREPARING IT” (priority 2020, published 2023)

How the values were obtained:
[1] = Stability of ademetionine in the compositions; type: physicochemical; conditions: +40° C. and 75% RH
Method: The compositions prepared according to the previous examples were placed in dark glass jars in cabinets with temperature and relative humidity control (+40° C. and 75% RH), periodically checking the content of active substances. The stability of the raw material is used as a reference.

[2] = Residual humidity according to Karl-Fisher during processing under vacuum; type: physicochemical; conditions: Phase: dosage
Method: It was operated as described in Example 3, but the step of mixing the active substances was carried out under vacuum, as described in Example 11.

ademetionine content, Time (months) 0 ([1]; dark glass jars, 0 months): 51.5 | ademetionine content, Time (months) 1 ([1]; dark glass jars, 1 month): 51.0 | ademetionine content, Time (months) 2 ([1]; dark glass jars, 2 months): 49.6 | ademetionine content, Time (months) 3 ([1]; dark glass jars, 3 months): 48.8 | % residual ion ([1]; active substance content after three months as a percentage with respect to time zero): 94.8% | KF: residual humidity [2]: 2.7% w/w
Structure (SMILES): C[S+](CC[C@H](N)C(=O)[O-])C[C@H]1O[C@@H](n2cnc3c(N)ncnc32)[C@H](O)[C@@H]1O (stereo partly drawn) [Ademetionine, S,S-adenosyl-L-methionine]
